Assay [1] has as its system human H-460-GFP lung tumors. The assay can be described thus: Orthotopically implanted human H-460-GFP lung tumor mouse xenograft, survival and metastasis (Example 3). Format: in vivo. The note with it: for Metastatic Incidence (proportion of animals exhibiting mediastinal lymph node metastasis): vehicle 9/10. As for the experimental part:
To examine the effect of methods and compounds of the present invention in a metastatic model of tumor progression, compounds of the invention were administered to orthotopically implanted H-460-GFP xenografted animals. Tumor models employing surgical orthotopic implantation (SOI) into the organ of origin of the original tumor are regarded as representative of cancer progression and metastasis in humans. Orthotopic implantation of H-460 increases the rate of tumor metastasis.
This experiment is carried out as described in Example 1 above, with the following modifications. To aid in identification and scoring of metastasis, the human H-460 lung cancer cell line was replaced by genetically-engineered tumors of GFP-transfected H-460 cells. 1-2 mm^3 H460-GFP lung tumor fragments were implanted by surgical orthotopic implantation (SOI) and sutured directly into lung tissue. (Yang et al., (1998) Cancer Res 58:4217-4221.) Dosing was initiated immediately after successful confirmation of tumor take by fluorescent GFP imaging (˜5 days following tumor implantation). Doxorubicin (DOX, 7.5 mg/kg, i.v. administration) was used as a chemotherapy control, and was administered on treatment days 3, 7, and 11.
In addition to weekly caliper measurement of primary tumor size, GFP imaging was performed on animals to monitor primary tumor progression and metastasis, starting the first day of treatment. Study endpoints were reached when an average tumor size of 2 cc or three morbid mice appear in any one group, whichever occurs first, regardless of treatment duration. Each animal was checked daily for mortality or signs of morbidity. Morbid animals were frozen. All animals, including dead animals, were examined by GFP imaging for primary tumor and metastasis at necropsy. Imaging and caliper measurements were used to determine the effects of treatment. Primary tumors were excised, measured and weighed at necropsy. Blood samples were taken during terminal sacrifice and complete blood counts (CBC) and reticulocyte analysis were performed.
Tumor metastasis is associated with increased morbidity and mortality in humans with metastatic cancer and in animal models of metastatic cancer. […] The increased morbidity and mortality were recorded and animals were preserved for subsequent necropsy. The study was terminated after >3 animals were found morbid in the vehicle group on treatment day 14, at which point the remaining animals were sacrificed to evaluate and compare tumor progression in the various treatment groups.
To determine metastatic frequency, the thoracic and abdominal cavities of animals were examined by fluorescent imaging.
(In general: Xenograft models place foreign cells or tissue in a host animal.)

For another assay, the system named is CDKN1C gene expression. Description: CDKN1C gene expression in Kelly neuroblastoma cells. Format: cell-based. To be noted: Kelly, read-out: fold-increase in CDKN1C mRNA expression. As for the experimental part: (§1) To identify compounds useful in the methods of the present invention, the following studies were performed. The effect of compounds of the present invention on expression of various genes associated with anti-tumor activity (e.g., genes having anti-proliferative activity, genes having pro-apoptotic activity, genes having anti-tumor activity, etc.). In these experiments, the effect of compounds on BNIP3, BNIP3L, NDRG1, CDKN1C, and REDD1/RTP801 gene expression in various types of cultured tumor cells line was examined, including Hep3B cells (human hepatocellular carcinoma), Kelly neuroblastoma cells, and MCF7 cells (human breast cancer)
The effects of various compounds of the present invention on the expression of genes associated with tumor growth and progression were examined in Kelly neuroblastoma cells as follows. Kelly neuroblastoma cells were grown in RPMI media. For each experiment, Kelly neuroblastoma cells were added to 96-well tissue culture plates (approximately 40,000 cells per well) such that the plated cells reached confluence the following day. On the following day, the cells were washed and the media replaced with RPMI containing 0.5% FBS. Various compounds of the present invention were added to the cultured cells to a final concentration of 20 μM, and the cells cultured for an additional 20-24 hours. DMSO (0.5%) was added to control cell cultures.
RNA was isolated from the Kelly neuroblastoma cells using a commercial kit and used for the preparation of cDNA. BNIP3, CDKN1C, and 18S RNA levels were measured using commercial kits (18S, Applied Biosystems cat#4319413E); BNIP3, Applied Biosystems cat#HS00969293 MH). RNA levels for BNIP3 and CDKN1C were normalized to that of 18S RNA and is presented as fold-change compared to that observed in DMSO control cultures. Kelly cell NDRG1 and BNIP3L mRNA levels were measured by Affymetrix microarray in a separate study. Cells were harvested after 6 hours incubation with 20 μM test compound or DMSO (0.5%) as control. RNA was isolated and labeled probes were prepared and hybridized to U133 Plus 2.0 Affymetrix microarrays. Changes in gene expression levels are presented as fold change compared to that of control (0.5% DMSO-treated) cultures.

The subject of a further assay is BNIP3 gene expression. Description: BNIP3 gene expression in MCF7 cells. Format: cell-based. The note with it: Homo sapiens, MCF7, read-out: fold-increase in BNIP3 mRNA expression. As for the experimental part:
as §1
The effects of various compounds of the present invention on the expression of genes associated with tumor growth and progression were examined in MCF7 breast cancer cells as follows. In some experiments, MCF7 (ATCC) cells were plated in 96-well tissue culture dishes (approximately 20,000 cells per well) and cultured in DMEM media supplemented with 10% serum. The following day, the cells were washed and the media was replaced with DMEM containing 0.5% FBS. Various compounds of the present invention were added to the cultured cells to a final concentration of 20 μM, and the cells cultured for an additional 20-24 hours. DMSO (0.5%) was added to control cell cultures. RNA was isolated as described above. Changes in gene expression levels are presented as fold change compared to that of control (0.5% DMSO-treated) cultures.
In other experiments, MCF7 cells were plated in 96-well tissue culture dishes as described above. After 24 hours, the cells were washed and the media was replaced with DMEM containing 0.5% FBS. Various compounds of the present invention were added to the cultured cells to a final concentration of 20 μM. DMSO (0.5%) was added to control cell cultures. After 24 hours, changes in gene expression of BNIP3 and 18S RNA were determined directly using one-step quantitative multiplex RT-PCR reactions according to the manufacturer's instructions (QuantiTect Multiplex RT-PCR Kit, Qiagen, catalog no. 204643). Changes in gene expression levels are presented as fold change compared to that of control (0.5% DMSO-treated) cultures.

Each structure is given as a SMILES string.

For the molecule `Cc1nc(C(=O)NCC(=O)O)c(O)c2ccc(Oc3ccccc3)cc12` [Compound D, [(4-Hydroxy-1-methyl-7-phenoxy-isoquinoline-3-carbonyl)-amino]-acetic acid], the “Metastatic Incidence (proportion of animals exhibiting mediastinal lymph node metastasis)” value (“Metastatic Incidence” for short) in assay [1] (20 mg/kg) is 9/10. Also, the “proportion of surviving animals” value in assay [1] (treatment day 9, 20 mg/kg) was 10/10; in assay [1] (treatment day 11, 20 mg/kg), 9/10; in assay [1] (treatment day 12, 20 mg/kg) it was 9/10; in assay [1] (treatment day 13, 20 mg/kg), 9/10; in assay [1] (treatment day 14, 20 mg/kg), 9/10. For the same molecule, the fold induction at 20 µM in the assay with CDKN1C gene expression amounted to 382.
Turning to `COc1ccc(Oc2ccc3c(O)c(C(=O)NCC(=O)O)ncc3c2)cc1` [Compound C, {[4-Hydroxy-7-(4-methoxy-phenoxy)-isoquinoline-3-carbonyl]-amino}-acetic acid], the “Metastatic Incidence” value in assay [1] (20 mg/kg) is given as 5/10. Besides, the “proportion of surviving animals” value in assay [1] (treatment day 9, 20 mg/kg) is given as 10/10; in assay [1] (treatment day 11, 20 mg/kg), 10/10; in assay [1] (treatment day 12, 20 mg/kg) it was 9/10; in assay [1] (treatment day 13, 20 mg/kg) it was 8/10; in assay [1] (treatment day 14, 20 mg/kg), 8/10. Besides, the fold induction at 20 µM amounted to 5 in the assay with BNIP3 gene expression and 49 in the assay on CDKN1C gene expression.
Turning to `O=C(O)CNC(=O)c1nc(Cl)c2ccccc2c1O` [Compound A, [(1-Chloro-4-hydroxy-isoquinoline-3-carbonyl)-amino]-acetic acid], the “Metastatic Incidence” value in assay [1] (20 mg/kg) was 8/10; in assay [1] (60 mg/kg), 7/10. For the same molecule, the “proportion of surviving animals” value is recorded as 10/10 in assay [1] (treatment day 9, 20 mg/kg); 10/10 in assay [1] (treatment day 9, 60 mg/kg); 10/10 in assay [1] (treatment day 11, 20 mg/kg); 10/10 in assay [1] (treatment day 11, 60 mg/kg); 10/10 in assay [1] (treatment day 12, 20 mg/kg); 9/10 in assay [1] (treatment day 12, 60 mg/kg). In addition, the “proportion of surviving animals” value in assay [1] (treatment day 13, 20 mg/kg) is reported as 8/10; in assay [1] (treatment day 13, 60 mg/kg), 9/10; in assay [1] (treatment day 14, 20 mg/kg) it was 8/10; in assay [1] (treatment day 14, 60 mg/kg), 9/10.
Turning to `C[C@H](NC(=O)c1ncc2cc(Oc3ccccc3)ccc2c1O)C(=O)O` [Compound B, (S)-2-[(4-Hydroxy-7-phenoxy-isoquinoline-3-carbonyl)-amino]-propionic acid], the results for the fold induction at 20 µM in the assay with BNIP3 gene expression and in the assay with CDKN1C gene expression were 4.5 and 91, respectively.
Take `O=C(O)CNC(=O)c1ncc2cc(Oc3ccc(F)cc3)ccc2c1O` [Compound E, {[7-(4-fluoro-phenoxy)-4-hydroxy-isoquinoline-3-carbonyl]-amino}-acetic acid]: the “proportion of surviving animals” value is recorded as 9/10 in assay [1] (treatment day 9, 20 mg/kg); 9/10 in assay [1] (treatment day 11, 20 mg/kg); 9/10 in assay [1] (treatment day 12, 20 mg/kg); 8/10 in assay [1] (treatment day 13, 20 mg/kg); 8/10 in assay [1] (treatment day 14, 20 mg/kg). The fold induction at 20 µM in the assay on BNIP3 gene expression came out at 5.3; in the assay on CDKN1C gene expression, 184.

The values are drawn from US8530404B2, “Compounds and methods for treatment of cancer” (FibroGen, Inc., priority 2005, dated 2013).
